Values of other authors as cited in patent US20030008852A1, “Transdermal system containing acetylsalicylic acid for treatment of migraine” (priority 1999, published 2003).

Tested on: migraine
Conditions: oral, 235 mg every second day

## CC(=O)Oc1ccccc1C(=O)O [acetylsalicylic acid]
  reduction in the migraine recurrence rate compared with the placebo group: 20%
